Reference: US8114638B2, “Arabinitol dehydrogenase from Neurospora crassa” (The Board of Trustees of the University of Illinois, priority 2007, dated 2012)
Like-named read-outs stand apart in the source and are kept apart here. Marks after values point to notes of the source that are not given here.

Columns and labels:
N. crassa LAD [1] = biological target: T1, N. crassa LAD (Neurospora crassa, UniProt Q7SI09); settings: for % Activity: relative to L-arabinitol = 100, 50 mM Tris pH 8.0, saturated NAD+
Procedure: (§1) Initial rates were determined using a Varian Cary 100 Bio UV-visible spectrophotometer (Varian) at 25° C. in 50 mM Tris (pH 8.0). […] Kinetic measurements with substrate L-arabinitol and cofactor NAD^+ were taken in a 5-by-5 matrix format, with substrate and cofactor concentrations varied from below their Km to 10-fold higher than their Km. The kinetic data were analyzed with a modified version of Cleland's program (Cleland, W. W. (1979) Statistical analysis of enzyme kinetic data, Methods Enzymol 63, 103-138.). Vmax and Km for both L-arabinitol and NAD^+ were obtained by fitting the data to a sequential ordered mechanism with NAD^+ binding first, based on the proposed mechanism for sorbitol dehydrogenase (Lindstad et al. (1992) The kinetic mechanism of sheep liver sorbitol dehydrogenase, Eur J Biochem 210, 641-647.) v=VmaxAB/(KiaKB+KAB+KBA+AB) (EQ. 1)
where v is the initial velocity, Vmax is the maximum velocity, KA and KB are the Michaelis-Menten constants for NAD+ and L-arabinitol, respectively, A and B are the concentrations of NAD+ and L-arabinitol, respectively, and Kia is the dissociation constant for NAD+.
Kinetics. The data were used to calculate the kinetic constants for various substrates by fitting the Michaelis-Menten equation using Origin 5.0. […] The data represent averages of assays performed in duplicate or triplicate on two separate occasions.

N. crassa LAD [2] = biological target: T1, N. crassa LAD; test: Cofactor specificity of N. crassa LAD by HPLC; format: biochemical; set-up: GST (glutathione S-transferase), with thrombin cleavage site (N, cleaved yes); made in house; host or cells: Escherichia coli BL21(DE3), vector pGEX-4T-3 (pGEX-lad1); settings: 1 mM NAD(P)+, 25 mM L-arabinitol, 50 mM Tris pH 8.0, 20 min at 37° C., UV 340 nm
Procedure: The cofactor specificity of N. crassa LAD was examined by HPLC. The separation of NAD+, NADP+, NADH, and NADPH was carried out using standard methods. No discernible cross-contamination of oxidized cofactors was observed. 20 μL reaction mixtures consisting of equal parts of 1 mM NAD(P)+ and 25 mM L-arabinitol in 50 mM Tris (pH 8.0) were set up, and following addition of approximately 1 μg of enzyme, the reaction was allowed to proceed for 20 min at 37° C. […] This indicated the strong preference for NAD+ as the cofactor of N. crassa LAD.
HPLC analysis. The enzyme (1 μg) was incubated in a mixture of buffer and 25 mM L-arabinitol with 1 mM NAD(P)+ at 37° C. for 20 min. The sample was eluted on a Zorbax 3.0×150 mm C-18 (3.5 μm) column with a UV detector (Agilent 1100 series). The eluent consisted of two components: 0.1 M KH2PO4 containing 5 mM tetrabutylammonium hydrogen sulfate (pH 5.5) (buffer A) and 100% methanol (buffer B). The most suitable gradient was an initial isocratic step for 6 min at 93% buffer A, a gradient for 5 min from 7 to 30% buffer B, and a final isocratic step for 5 min at 30% buffer B.

[3] = Kinetic parameters of LAD from various source organisms; format: biochemical; settings: greater
Procedure: as §1

[4] = LADs of other organisms, from references, cited from earlier work
[5] = 4° C. and freeze-thawing; cited from earlier work
[6] = with indicated substrate, 25° C., 50 mM Tris pH 8.0, saturated NAD+ (2 mM)

## OC[C@@H](O)[C@@H](O)[C@@H](O)CO [Adonitol, adonitol]
N. crassa LAD [1]; read-out: Km (mean ± SD), with indicated substrate, 25° C., 50 mM Tris pH 8.0, saturated NAD+ (2 mM)
  Km: 35 ± 3 mM
N. crassa LAD [1]; 25° C.
  % Activity: 46%
N. crassa LAD [1]; [6]
  kcat (mean ± SD): 1,080 ± 30 min^−1

## OC[C@@H](O)C(O)[C@H](O)CO [D-Arabinitol, D-arabinitol]
N. crassa LAD [1]
  activity as substrate or cofactor of N. crassa LAD (in words): No activity was observed
N. crassa LAD [1]; 25° C.
  % Activity: 0%

## OC[C@@H](O)[C@@H](O)[C@H](O)[C@H](O)CO [D-Mannitol, D-mannitol]
N. crassa LAD [1]
  activity as substrate or cofactor of N. crassa LAD (in words): No activity was observed
N. crassa LAD [1]; 25° C.
  % Activity: 0%

## OC[C@@H](O)[C@@H](O)[C@H](O)[C@@H](O)CO [D-Sorbitol, D-sorbitol]
N. crassa LAD [1]
  activity as substrate or cofactor of N. crassa LAD (in words): No activity was observed
N. crassa LAD [1]; 25° C.
  % Activity: 0^c %

## OC[C@H](O)C(O)[C@@H](O)CO [L-Arabinitol, L-arabinitol]
N. crassa LAD [1]; read-out: Km value for substrate
  Km: 16 mM
N. crassa LAD [1]; 25° C.
  % Activity: 100%

## NC(=O)c1ccc[n+]([C@@H]2O[C@H](COP(=O)([O-])OP(=O)(O)OC[C@H]3O[C@@H](n4cnc5c(N)ncnc54)[C@H](O)[C@@H]3O)[C@@H](O)[C@H]2O)c1 [NAD, NAD+]
N. crassa LAD [1]; read-out: Km for L-arabinitol (mean ± SD), with indicated coenzyme, 25° C., 50 mM Tris pH 8.0
  Km: 16 ± 3 mM
N. crassa LAD [1]; read-out: Km for NAD(P) (mean ± SD), 25° C., 50 mM Tris pH 8.0, substrate L-arabinitol
  Km: 0.174 mM
N. crassa LAD [1]; with indicated coenzyme, 25° C., 50 mM Tris pH 8.0, substrate L-arabinitol
  kcat (mean ± SD): 1,206 ± 54 min^−1
N. crassa LAD [2]
  reduced cofactor peak by HPLC (in words): a single peak (UV 340 nm) was observed that had the same retention time as authentic NADH

## NC(=O)c1ccc[n+]([C@@H]2O[C@H](COP(=O)([O-])OP(=O)(O)OC[C@H]3O[C@@H](n4cnc5c(N)ncnc54)[C@H](OP(=O)(O)O)[C@@H]3O)[C@@H](O)[C@H]2O)c1 [NADP, NADP+]
N. crassa LAD [1]; listed as NADP+
  activity as substrate or cofactor of N. crassa LAD (in words): small yet detectable activity
N. crassa LAD [1]; listed as NADP^+
  activity as substrate or cofactor of N. crassa LAD (in words): very low yet detectable activity
N. crassa LAD [2]
  reduced cofactor peak by HPLC (in words): a small yet detectable peak was observed with a retention time corresponding to an authentic sample of NADPH

## OC[C@@H](O)[C@H](O)[C@@H](O)CO [Xylitol, xylitol]
N. crassa LAD [1]; 25° C.
  % Activity: 4.9%
N. crassa LAD [1]; [6]
  kcat (mean ± SD): 970 ± 40 min⁻¹

## A. niger: L-arabinitol 4-dehydrogenase from Aspergillus niger (literature)
[3]
  specific activity relative to N. crassa LAD: about 3 fold
[4]
  Specific activity: 96 U/mg
[4]; read-out: Km,L-arabinitol
  Km: 89 mM
[4]; read-out: Km,NAD+
  Km: 0.05 mM
[5]
  stability of purified enzyme as reported (in words): highly unstable, with rapidly diminishing activity at 4° C., and complete loss of activity after freeze-thawing of the enzyme

## A. oryzae: L-arabinitol 4-dehydrogenase from Aspergillus oryzae (literature)
[4]
  Specific activity: 0.04 U/mg

## H. jecorina: L-arabinitol 4-dehydrogenase from Hypocrea jecorina (literature; two table lines from different references)
[4]
  kcat: 0.85 s⁻¹
[4]; read-out: Km,NAD+
  Km: 0.18 mM
